Assay results taken from patent US10450328B2, “Crystals of thiadiazole derivative DPP-IV inhibitors and uses thereof” (CHIA TAI TIANQING PHARMACEUTICAL GROUP CO., LTD., priority 2015, dated 2019).

Legend:
DPP-IV = DPP-IV (Homo sapiens, UniProt P27487); settings: result in words; cited from earlier work
[1] = result in words; cited from earlier work
Powder fluidity = assay type: physicochemical; settings: result in words
[2] = Stability test: experiments on influencing factors (light irradiation, high temperature, high humidity); assay type: physicochemical; settings: for stability: result in words
Text: Suitable amounts of the crystalline Form A obtained in Example 2 and the crystalline Form B obtained in Example 3 were taken to carry out experiments on influencing factors according to the methods described in the Chinese Pharmacopoeia, 2010 edition, Part II, Appendix.

[3] = High-humidity Test 92.5% RH, 5 days
[4] = High-humidity Test 92.5% RH, 10 days
[5] = High-temperature Test 40° C., 5 days
[6] = High-temperature Test 40° C., 10 days
[7] = High-temperature Test 60° C., 5 days
[8] = Light Irradiation Test 4500Lux, 5 days
[9] = Light Irradiation Test 4500Lux, 10 days
[10] = High-temperature Test 60° C., 5 days, 60 °C
[11] = High-temperature Test 60° C., 10 days, 60 °C

DPP-IV, sequence (P27487 whole entry, species assumed): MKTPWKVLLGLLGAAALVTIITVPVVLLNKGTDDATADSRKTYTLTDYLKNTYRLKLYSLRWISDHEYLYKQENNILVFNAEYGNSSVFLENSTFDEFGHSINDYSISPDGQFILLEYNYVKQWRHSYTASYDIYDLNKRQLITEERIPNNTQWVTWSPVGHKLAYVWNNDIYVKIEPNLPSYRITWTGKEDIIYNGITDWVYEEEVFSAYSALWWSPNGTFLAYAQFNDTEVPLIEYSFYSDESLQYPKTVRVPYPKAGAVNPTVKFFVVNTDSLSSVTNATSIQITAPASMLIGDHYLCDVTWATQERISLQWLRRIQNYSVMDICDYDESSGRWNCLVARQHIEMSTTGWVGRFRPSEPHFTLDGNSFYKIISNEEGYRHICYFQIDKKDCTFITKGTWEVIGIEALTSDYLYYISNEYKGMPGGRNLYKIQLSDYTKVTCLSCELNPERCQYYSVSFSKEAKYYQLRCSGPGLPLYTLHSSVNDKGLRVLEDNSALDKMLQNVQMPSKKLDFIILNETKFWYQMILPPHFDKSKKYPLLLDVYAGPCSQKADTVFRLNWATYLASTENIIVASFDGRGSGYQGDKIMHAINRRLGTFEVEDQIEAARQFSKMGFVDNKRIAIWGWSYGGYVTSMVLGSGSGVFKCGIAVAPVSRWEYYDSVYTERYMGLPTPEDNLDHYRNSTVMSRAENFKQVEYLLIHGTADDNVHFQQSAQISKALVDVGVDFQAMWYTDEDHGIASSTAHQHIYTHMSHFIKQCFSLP

CC#CCn1c(N2CCC[C@@H](N)C2)nc2c1c(=O)n(Cc1ccc3nsnc3n1)c(=O)n2C [Compound 7]
inhibitory activity against DPP-IV (DPP-IV): very good inhibitory activity
half-life in vivo [1]: suitable half-life in vivo
metabolic level in vivo [1]: very good metabolic level in vivo

CC#CCn1c(N2CCC[C@@H](N)C2)nc2c1c(=O)n(Cc1ccc3nsnc3n1)c(=O)n2C [crystalline Form A]
powder fluidity (Powder fluidity): good powder fluidity
Relative Substances Main Peak % ([2]; 0 day): 98.78%
Relative Substances Maximum Single Impurity % ([2]; 0 day): 0.56%
Relative Substances Main Peak % [2, 3]: 98.79%
Relative Substances Maximum Single Impurity % [2, 3]: 0.61%
Relative Substances Main Peak % [2, 4]: 98.84%
Relative Substances Maximum Single Impurity % [2, 4]: 0.61%
Relative Substances Main Peak % [2, 5]: 98.72%
Relative Substances Maximum Single Impurity % [2, 5]: 0.60%
Relative Substances Main Peak % [2, 6]: 98.42%
Relative Substances Maximum Single Impurity % [2, 6]: 0.61%
Relative Substances Main Peak % [2, 7]: 98.72%
Relative Substances Maximum Single Impurity % [2, 7]: 0.60%
Relative Substances Maximum Single Impurity % ([2]; High-temperature Test 60° C., 10 days): 0.61%
Relative Substances Main Peak % ([2]; High-temperature Test 60° C., 10 days, 60 °C high-temperature test): 98.74%
Relative Substances Main Peak % [2, 8]: 98.09%
Relative Substances Maximum Single Impurity % [2, 8]: 0.51%
Relative Substances Main Peak % [2, 9]: 96.21%
Relative Substances Maximum Single Impurity % [2, 9]: 0.70%
stability [2]: excellent stability

CC#CCn1c(N2CCC[C@@H](N)C2)nc2c1c(=O)n(Cc1ccc3nsnc3n1)c(=O)n2C [crystalline Form B]
powder fluidity (Powder fluidity): good powder fluidity
Relative Substances Main Peak % ([2]; 0 day): 99.3%
Relative Substances Maximum Single Impurity % ([2]; 0 day): 0.18%
Relative Substances Main Peak % [2, 3]: 99.36%
Relative Substances Maximum Single Impurity % [2, 3]: 0.17%
Relative Substances Main Peak % [2, 4]: 99.4%
Relative Substances Maximum Single Impurity % [2, 4]: 0.16%
Relative Substances Main Peak % [2, 5]: 99.38%
Relative Substances Maximum Single Impurity % [2, 5]: 0.17%
Relative Substances Main Peak % [2, 6]: 99.44%
Relative Substances Maximum Single Impurity % [2, 6]: 0.15%
Relative Substances Main Peak % [2, 10]: 99.33%
Relative Substances Maximum Single Impurity % [2, 10]: 0.2%
Relative Substances Main Peak % [2, 11]: 99.12%
Relative Substances Maximum Single Impurity % [2, 11]: 0.24%
Relative Substances Main Peak % [2, 8]: 98.98%
Relative Substances Maximum Single Impurity % [2, 8]: 0.26%
Relative Substances Main Peak % [2, 9]: 98.2%
Relative Substances Maximum Single Impurity % [2, 9]: 0.58%
stability [2]: excellent stability
